Columns and labels:
Assay in all cases: relative viability (nuclei count vs DMSO), 5 days (fraction); higher = more cells survive
[1] = compound: CN(C)C[C@@H]1CCn2cc(c3ccccc32)C2=C(C(=O)NC2=O)c2cn(c3ccccc23)CCO1 [Ruboxistaurin] + CCNC(=O)c1noc(-c2cc(C(C)C)c(O)cc2O)c1-c1ccc(CN2CCOCC2)cc1 [Luminespib] (partner 0.01 µM)
How it was run: (§1)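 Lung cancer cell lines were pin-tool dosed in 1536-well plates on the day after seeding, with either a lone drug or a fixed anchor-drug dose plus five library-drug doses (not always all listed) in √10 steps. Nuclei were counted on 4× images after 5 days. Relative viability is the ratio of treated-well to vehicle-well nuclei counts, with each value a median of duplicate plates.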

[2] = compound: CN(C)C[C@@H]1CCn2cc(c3ccccc32)C2=C(C(=O)NC2=O)c2cn(c3ccccc23)CCO1 [Ruboxistaurin] + CC(=O)Nc1cccc(-n2c(=O)n(C3CC3)c(=O)c3c(Nc4ccc(I)cc4F)n(C)c(=O)c(C)c32)c1 [Trametinib] (partner 0.02 µM)
How it was run: as §1

[3] = compound: CN(C)C[C@@H]1CCn2cc(c3ccccc32)C2=C(C(=O)NC2=O)c2cn(c3ccccc23)CCO1 [Ruboxistaurin] + CS(=O)(=O)N1CCN(Cc2cc3nc(-c4cccc5[nH]ncc45)nc(N4CCOCC4)c3s2)CC1 [Pictilisib] (partner 1 µM)
How it was run: as §1

[4] = compound: CN(C)C[C@@H]1CCn2cc(c3ccccc32)C2=C(C(=O)NC2=O)c2cn(c3ccccc23)CCO1 [Ruboxistaurin] + CC(=O)c1c(C)c2cnc(Nc3ccc(N4CCNCC4)cn3)nc2n(C2CCCC2)c1=O [Palbociclib] (partner 0.5 µM)
How it was run: as §1

[5] = compound: CN(C)C[C@@H]1CCn2cc(c3ccccc32)C2=C(C(=O)NC2=O)c2cn(c3ccccc23)CCO1 [Ruboxistaurin] + CS(=O)(=O)CCNCc1ccc(-c2ccc3ncnc(Nc4ccc(OCc5cccc(F)c5)c(Cl)c4)c3c2)o1 [Lapatinib] (partner 2 µM)
How it was run: as §1

| Cell Line | relative viability ([1]; first compound 0.08 µM) | relative viability ([1]; first compound 0.8 µM) | relative viability ([1]; first compound 2.53 µM) | relative viability ([1]; first compound 8 µM) | relative viability ([2]; first compound 0.08 µM) | relative viability ([2]; first compound 0.8 µM) | relative viability ([2]; first compound 2.53 µM) | relative viability ([2]; first compound 8 µM) | relative viability ([3]; first compound 0.08 µM) | relative viability ([3]; first compound 0.8 µM) | relative viability ([3]; first compound 2.53 µM) | relative viability ([3]; first compound 8 µM) | relative viability ([4]; first compound 0.08 µM) | relative viability ([4]; first compound 0.8 µM) | relative viability ([4]; first compound 2.53 µM) | relative viability ([4]; first compound 8 µM) | relative viability ([5]; first compound 0.08 µM) | relative viability ([5]; first compound 0.8 µM) | relative viability ([5]; first compound 2.53 µM) | relative viability ([5]; first compound 8 µM) |
| --- | --- | --- | --- | --- | --- | --- | --- | --- | --- | --- | --- | --- | --- | --- | --- | --- | --- | --- | --- | --- |
| 201T | 1.09 | 1.01 | 1.09 | 1 | 0.739 | 0.705 | 0.764 | 0.747 | 0.729 | 0.629 | 0.742 | 0.555 | 0.357 | 0.344 | 0.353 | 0.37 | 1.06 | 1 | 1.06 | 1.05 |
| A549 | – | – | – | – | – | – | – | – | 0.567 | 0.423 | 0.385 | 0.223 | – | – | – | – | 1.03 | 0.838 | 0.866 | 0.753 |
| A-427 | 0.974 | 0.757 | 0.869 | 0.611 | 0.88 | 0.692 | 0.752 | 0.548 | 0.7 | 0.594 | 0.738 | 0.557 | 0.554 | 0.524 | 0.5 | 0.538 | 0.995 | 0.988 | 0.917 | 0.983 |
| ABC-1 | 0.773 | 0.823 | 0.564 | 0.669 | – | – | – | – | 0.865 | 0.774 | 0.787 | 0.506 | 0.953 | 0.724 | 0.968 | 1.05 | 1.48 | 1.01 | 1.06 | 1.47 |
| BEN | 0.418 | 0.391 | 0.384 | 0.179 | 1.07 | 0.976 | 1.01 | 0.895 | 0.604 | 0.538 | 0.535 | 0.406 | 0.415 | 0.453 | 0.522 | 0.495 | 0.803 | 0.617 | 0.708 | 0.564 |
| CAL-12T | 0.399 | 0.472 | 0.362 | 0.544 | 0.303 | 0.347 | 0.323 | 0.399 | 0.482 | 0.349 | 0.395 | 0.386 | 0.476 | 0.426 | 0.419 | 0.483 | 0.735 | 0.554 | 0.765 | 0.78 |
| COR-L23 | 0.799 | 0.55 | 0.714 | 0.632 | 0.749 | 0.581 | 0.571 | 0.59 | 0.802 | 0.688 | 0.676 | 0.59 | 0.261 | 0.267 | 0.313 | 0.372 | 1.23 | 0.914 | 1.09 | 1.08 |
| COR-L 105 | 1.06 | 0.784 | 0.681 | 0.941 | 0.43 | 0.364 | 0.463 | 0.441 | 0.463 | 0.388 | 0.385 | 0.313 | 0.418 | 0.389 | 0.411 | 0.416 | 0.335 | 0.385 | 0.365 | 0.341 |
| ChaGo-K-1 | 0.63 | 0.558 | 0.76 | 0.529 | 0.972 | 0.814 | 0.941 | 0.956 | 1.23 | 0.758 | 0.655 | 0.424 | 0.898 | 0.889 | 0.933 | 0.98 | – | – | – | – |
| EKVX | 0.945 | 0.843 | 0.919 | 0.926 | 0.359 | 0.287 | 0.336 | 0.281 | 0.53 | 0.423 | 0.438 | 0.354 | 0.414 | 0.318 | 0.424 | 0.321 | 0.2 | 0.19 | 0.216 | 0.188 |
| EMC-BAC-2 | 1.23 | 1.12 | 0.991 | 0.925 | 0.94 | 0.841 | 0.775 | 0.721 | 0.59 | 0.47 | 0.491 | 0.426 | 0.51 | 0.506 | 0.514 | 0.493 | 0.879 | 0.856 | 0.866 | 0.802 |
| EPLC-272H | 0.368 | 0.224 | 0.293 | 0.668 | 0.347 | 0.228 | 0.27 | 0.257 | 0.341 | 0.303 | 0.343 | 0.294 | 0.312 | 0.352 | 0.285 | 0.317 | 0.966 | 0.916 | 0.933 | 0.962 |
| H3255 | 1.02 | 0.726 | 0.957 | 0.865 | 0.635 | 0.479 | 0.644 | 0.536 | 0.566 | 0.521 | 0.498 | 0.462 | 0.318 | 0.336 | 0.329 | 0.364 | 0.221 | 0.217 | 0.27 | 0.221 |
| HARA | 0.612 | 0.495 | 0.837 | 0.601 | 0.674 | 0.636 | 0.653 | 0.684 | 0.431 | 0.327 | 0.325 | 0.137 | 0.214 | 0.263 | 0.266 | 0.326 | 0.803 | 0.672 | 0.712 | 0.57 |
| HCC-15 | 0.278 | 0.329 | 0.32 | 0.716 | 0.401 | 0.388 | 0.409 | 0.417 | 0.774 | 0.689 | 0.558 | 0.662 | 0.748 | 0.694 | 0.734 | 0.745 | 0.879 | 0.88 | 0.879 | 0.947 |
| HCC-44 | 1.16 | 0.973 | 1.06 | 1.09 | 1.02 | 1 | 1.06 | 1.21 | 0.622 | 0.37 | 0.596 | 0.511 | 0.986 | 1 | 0.953 | 0.968 | 0.982 | 1 | 1.03 | 1.1 |
